From article PMC4827351 (Chemical Science, 2015)

Legend:
E. coli Nissle = experiment: SEM analysis of bacterial agglutination; format: cell-based, Escherichia coli; details: 3 µM proHD6 treated with trypsin before incubation (trypsin inactivated with APMSF), 30 min, 50 mM Tris-maleate pH 6.4
Protocol: Bacteria were grown aerobically at 37 °C overnight in LB media. The next morning the strains were subcultured and grown to mid-logarithmic phase in LB media. An aliquot of the bacteria (0.5–2 × 10^7 CFU mL^–1) was removed, sedimented by centrifugation (7000g × 2 min, 4 °C), washed twice with 50 mM Tris-maleate buffer, pH 6.4, and then resuspended in 0.5 mL of the 50 mM Tris-maleate buffer. The bacterial suspension was incubated at room temperature for 30 min with buffer control, 0.4 μM APMSF-inactivated trypsin, 3 μM proHD6, 3 μM trypsin-cleaved proHD6, or 3 μM HD6. Trypsin-cleaved proHD6 was prepared by incubating 30 μM proHD6 with 4 μM trypsin (Affimetrix, Santa Clara, CA) for 1 h at room temperature in 50 mM Tris-maleate buffer, pH 6.4. At the end of incubation, the trypsin was inactivated by addition of APMSF (p-amidinophenylmethylsulfonylfluoride HCl, Millipore, 25 μg mL^–1), and the mixture was added to the bacterial suspension. The APMSF-inactivated trypsin was similarly prepared, except that proHD6 was omitted from the preincubation. After a 30 min incubation, the treated bacterial suspensions were sedimented by centrifugation (7000g × 5 min, 4 °C), and the buffer supernatant was carefully removed. […]

[1] = tested on: L. monocytogenes ATCC 19115; experiment: Cuvette-based bacterial agglutination assay; format: cell-based, Listeria monocytogenes; details: n = 3
Excerpt: We previously reported a simple cuvette-based in vitro agglutination assay that enables time-dependent monitoring of agglutination of viable bacteria by HD6.[15] We employed this assay to further characterize the trypsin-dependent activity of proHD6 on cultured bacterial cells (Fig. 4a and b). […] In these assays, we defined the “supernatant” as the culture solution in the top portion of the cuvette and the “re-suspension” as the mixture that results from agitating the entire culture after the 6 h incubation period.[15] We observed an ≈1.5-fold log reduction in CFU mL^–1 for the “supernatant” from cultures treated with combination of trypsin and proHD6 relative to the no-peptide control (Fig. 4c). Following “re-suspension”, the total CFU mL^–1 in the cuvette was indistinguishable from that of either the untreated control culture or the bacterial culture treated with proHD6.
Fig. 4 Bacterial agglutination assays for native and cleaved proHD6. (a) Agglutination of E. coli ATCC 25922 and L. monocytogenes ATCC 19115 in 50% MHB treated with proHD6 in the absence and presence of 0.4 μM trypsin or HD6 (control). (b) Representative images of cuvettes containing E. coli ATCC 25922 or L. monocytogenes ATCC 19115 after incubation with 20 μM peptides for 2 h at room temperature. (c) Plots of colony forming units (CFU mL^–1) of E. coli ATCC 25922 and L. monocytogenes ATCC 19115 after treatment with 20 μM peptides for 6 h (mean ± SDM, n = 3). Supernatant is defined as the clarified medium solution in the top portion of the culture and resuspension is defined as the mixture after thoroughly agitating the heterogeneous solution.
Stock solutions (50 μL) of HD6 and proHD6 (0, 50, 100, and 200 μM; 10× concentrations) were prepared in sterile Milli-Q water. If trypsin was required, aliquots of a 1 mg mL^–1 stock solution of TPCK-treated trypsin (Worthington) prepared in sterile Milli-Q water were added to solutions of proHD6 to afford a final trypsin concentration of 0.01 mg mL^–1. The assays were then conducted following the reported procedure.[15] […]

EPLQAEDDPLQAKAYEADAQEQRGANDQDFAVSFAEDASSSLRALGSTRAFTCHCRRSCYSTEYSYGTCTVMGINHRFCCL (disulfide (positions not given here)) [proHD6, 81-residue propeptide of human α-defensin 6, recombinant, from His6-SUMO-proHD6]
bacterial agglutination (SEM), trypsin-cleaved (E. coli Nissle): entangled and agglutinated E. coli | total CFU mL^-1 after re-suspension versus untreated control culture or culture treated with proHD6 ([1]; 20 µM proHD6 + trypsin, 6 h, entire culture agitated): indistinguishable | agglutination of bacterial culture in cuvette, with trypsin ([1]; proHD6 + 0.4 µM (0.01 mg/mL) trypsin, 10^8 CFU mL^-1, 50% MHB, room temperature): bacterial agglutination and sedimentation occurred | agglutination of bacterial culture in cuvette ([1]; proHD6 up to 20 µM, no trypsin, 10^8 CFU mL^-1, 50% MHB, 6 h, room temperature): remained homogeneous
